We go through 17 molecules from US8455497B2, “Inhibitors of aspartyl protease” (Vertex Pharmaceuticals Incorporated, priority 1999, dated 2013).

Like-named read-outs stand apart in the source and are kept apart here. A value given as a limit tells only on which side of the number the result lay.

Test [1] relates to HIV-1 (strain IIIB). Kind of test: Antiviral activity assay in MT4 cells (propidium iodide based). To be noted: wild type HIV-1 virus, MT4 cells, read-out: Wildtype virus - IC50. The format is cell-based. The method in brief: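 Compound serial dilutions in RPMI/FCS received MT4 cells pre-infected 1 hr at 37°C with HIV-1 IIIB at 100×TCID50. After 5 days' culture and Nonidet-40 lysis, well DNA content was measured by propidium iodide dye; mock-infected cells served as control.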

In test [2] the test system is EP13 multi protease inhibitor resistant virus. Kind of test: Anti-viral activity against resistant virus EP13 in MT4 cells. Format: cell-based, HIV-1. A digest of the protocol: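 MT4 cells infected for 1 h at 37 °C, MOI 100×TCID50, then diluted 6-fold onto pre-diluted compound and cultured 5 days (5% CO2). Viable-cell DNA content estimated by propidium iodide. EP13 carries protease mutations M46I, L63P, A71V, V82F/L, I84V, no RT mutations.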

The subject of test [3] is D545701-14 multi protease inhibitor resistant virus. Kind of test: Anti-viral activity against resistant virus D545701-14 in MT4 cells. The format is cell-based, HIV-1.
Setting [4] is: Human immunodeficiency virus 1, IIIB.
[5] abbreviates: Human immunodeficiency virus 1, MT4, read-out: EP13 mutant IC50.
Setting [6] is: Human immunodeficiency virus 1, MT4, read-out: D545701-14 mutant - IC50.
Where [7] appears, read: Human immunodeficiency virus 1, MT4, read-out: EP13 mutant IC50, EP13 multi protease inhibitor resistant virus, MT4 cells.
[8] abbreviates: Human immunodeficiency virus 1, MT4, read-out: D545701-14 mutant - IC50, D545701-14 multi protease inhibitor resistant virus, MT4 cells.
The mark [9] stands for this setting: EP13 multi protease inhibitor resistant virus, MT4 cells, read-out: EP13 mutant IC50.
Where [10] appears, read: D545701-14 multi protease inhibitor resistant virus, MT4 cells, read-out: D545701-14 mutant - IC50.

Take `COC(=O)NCCOc1ccc(C[C@H](NC(=O)O[C@H]2CO[C@H]3OCC[C@H]32)[C@H](O)CN(CC(C)C)S(=O)(=O)c2ccc3c(c2)OCO3)cc1` [Compound 356, (3R,3aS,6aR)hexahydrofuro[2,3-b]furan-3-yl (1S,2R)-3-[(1,3-benzodioxol-5-ylsulfonyl)(isobutyl)amino]-2-hydroxy-1-[4-(2-[(methoxycarbonyl)amino]ethoxy)benzyl]propylcarbamate]: the 50% inhibitory concentration (IC50) in test [1] (setting [4]) is 0.001 to 0.01 µM; in test [2] (setting [5]), 0.001 to 0.01 µM; in test [3] (setting [6]), under 0.001 µM.
`CC(C)(CCCC#N)CN(C[C@@H](O)[C@H](Cc1ccc(OCc2ccccc2)cc1)NC(=O)O[C@H]1CO[C@H]2OCC[C@H]21)S(=O)(=O)c1ccc2c(c1)OCO2` [Compound 305, (3R,3aS,6aR)-Hexahydrofuro[2,3-b]furan-3-yl (1S,2R)-3-[(1,3-benzodioxol-5-ylsulfonyl)(5-cyano-2,2-dimethylpentyl)amino]-1-[4-(benzyloxy)benzyl]-2-hydroxypropylcarbamate]: the concentration for half-maximal inhibition (IC50) in test [1] (setting [4]), in test [2] (setting [7]) and in test [3] (setting [8]) was 0.001 to 0.01 µM throughout.
Take `CC(C)CN(C[C@@H](O)[C@H](Cc1ccc(Oc2c(C(=O)O)cc([N+](=O)[O-])cc2[N+](=O)[O-])cc1)NC(=O)O[C@H]1CO[C@H]2OCC[C@H]21)S(=O)(=O)c1ccc2c(c1)OCO2` [Compound 334, 2-(4-{(2S,3R)-2-({[(3R,3aS,6aR)-hexahydrofuro[2,3-b]furan-3-yloxy]carbonyl}amino)-4-[(1,3-benzodioxol-5-ylsulfonyl)(isobutyl)amino]-3-hydroxybutyl}phenoxy)-3,5-dinitrobenzoic Acid]: the IC50 in test [1] (setting [4]), in test [2] (setting [7]) and in test [3] (setting [8]) was 0.001 to 0.01 µM each time.
As to `O=C(N[C@@H](Cc1ccc(OCc2ccccc2)cc1)[C@H](O)CN(CC1CCCC1)S(=O)(=O)c1ccc2c(c1)OCO2)O[C@H]1CO[C@H]2OCC[C@H]21` [Compound 395, (3R,3aS,6aR)-hexahydrofuro[2,3-b]furan-3-yl (1S,2R)-3-[(1,3-benzodioxol-5-ylsulfonyl) (cyclopentylmethyl)amino]-1-[4-(benzyloxy)benzyl]-2-hydroxypropylcarbamate], the IC50 in test [1] (setting [4]), in test [2] (setting [7]) and in test [3] (setting [8]) was 0.001 to 0.01 µM throughout.
As to `CC(C)CN(C[C@@H](O)[C@H](Cc1ccc(OCCCO)cc1)NC(=O)O[C@H]1CO[C@H]2OCC[C@H]21)S(=O)(=O)c1ccc2c(c1)OCO2` [Compound 319, (3R,3aS,6aR)-Hexahydrofuro[2,3-b]furan-3-yl (1S,2R)-3-[(1,3-benzodioxol-5-ylsulfonyl)(isobutyl)amino]-2-hydroxy-1-[4-(3-hydroxypropoxy)benzyl]propylcarbamate], the IC50 in test [1] (setting [4]), in test [2] (setting [7]) and in test [3] (setting [8]) was 0.001 to 0.01 µM throughout.
Consider `CNC(=O)OCCCCOc1ccc(C[C@H](NC(=O)O[C@H]2CO[C@H]3OCC[C@H]32)[C@H](O)CN(CC(C)C)S(=O)(=O)c2ccc3c(c2)OCO3)cc1` [Compound 318, (3R,3aS,6aR)-Hexahydrofuro[2,3-b]furan-3-yl (1S,2R)-3-[(1,3-benzodioxol-5-ylsulfonyl)(isobutyl)amino]-2-hydroxy-1-[4-(4-{[(methylamino)carbonyl]oxy}butoxy)benzyl]propylcarbamate], for which the half-inhibitory concentration (IC50) in test [1] (setting [4]), in test [2] (setting [7]) and in test [3] (setting [8]) was 0.001 to 0.01 µM each time.
As for `CC(C)CN(C[C@@H](O)[C@H](Cc1ccc(Oc2ccc([N+](=O)[O-])cc2[N+](=O)[O-])cc1)NC(=O)O[C@H]1CO[C@H]2OCC[C@H]21)S(=O)(=O)c1ccc2c(c1)OCO2` [Compound 336, (3R,3aS,6aR)-hexahydrofuro[2,3-b]furan-3-yl (1S,2R)-3-[(1,3-benzodioxol-5-ylsulfonyl)(isobutyl)amino]-1-[4-(2,4-dinitrophenoxy)benzyl]-2-hydroxypropylcarbamate], the IC50 in test [1] (setting [4]), in test [2] (setting [7]) and in test [3] (setting [8]) was 0.001 to 0.01 µM throughout.
With `CC(C)CN(C[C@@H](O)[C@H](Cc1ccc(OCCCN2CCCC2)cc1)NC(=O)O[C@H]1CO[C@H]2OCC[C@H]21)S(=O)(=O)c1ccc2c(c1)OCO2` [Compound 280, (3R,3aS,6aR)-hexahydrofuro[2,3-b]furan-3-yl (1S,2R)-3-[(1,3-benzodioxol-5-ylsulfonyl)(isobutyl)amino]-2-hydroxy-1-{4-[3-(1-pyrrolidinyl)propoxy]-3-benzyl}propylcarbamate], the results for the concentration for half-maximal inhibition (IC50) in test [1], in test [2] (setting [9]) and in test [3] (setting [10]) were 0.01 to 0.1 µM, 0.001 to 0.01 µM and 0.001 to 0.01 µM, respectively.
Take `CC(C)CN(C[C@@H](O)[C@H](Cc1ccc(Oc2ccc(C#N)cn2)cc1)NC(=O)O[C@H]1CO[C@H]2OCC[C@H]21)S(=O)(=O)c1ccc2c(c1)OCO2` [Compound 335, (3R,3aS,6aR)-hexahydrofuro[2,3-b]furan-3-yl (1S,2R)-3-[(1,3-benzodioxol-5-ylsulfonyl)(isobutyl)amino]-1-{4-[(S-cyano-2-pyridinyl)oxy]benzyl}-2-hydroxypropylcarbamate]: the IC50 in test [1] (setting [4]), in test [2] (setting [7]) and in test [3] (setting [8]) was 0.001 to 0.01 µM each time.
As for `CCOC(=O)COc1ccc(C[C@H](NC(=O)O[C@H]2CO[C@H]3OCC[C@H]32)[C@H](O)CN(CC(C)C)S(=O)(=O)c2ccc3c(c2)OCO3)cc1` [Compound 326, Ethyl (4-{(2S,3R)-2-({[(3R,3aS,6aR)-hexahydrofuro[2,3-b]furan-3-yloxy]carbonyl}amino)-4-[(1,3-benzodioxol-5-ylsulfonyl)(isobutyl)amino]-3-hydroxybutyl}phenoxy) acetate], the half-maximal inhibitory concentration (IC50) in test [1] (setting [4]) was in the range of 0.001 to 0.01 µM; in test [2] (setting [7]) it was 0.01 to 0.1 µM; in test [3] (setting [8]), 0.01 to 0.1 µM.
Turning to `COC(=O)CCCOc1ccc(C[C@H](NC(=O)OC2CO[C@H]3OCCC23)[C@H](O)CN(CC(C)C)S(=O)(=O)c2ccc3c(c2)OCO3)cc1` (stereo partly drawn) [Compound 303, Methyl 4-(4-{(2S,3R)-2-({[3R,3aS,6aR)-hexahydrofuro[2,3-b]furan-3-yloxy]carbonyl}amino)-4-[(1,3-benzodioxol-5-ylsulfonyl)(isobutyl)amino]-3-hydroxybutyl}phenoxy) butanoate], the IC50 in test [1] (setting [4]), in test [2] (setting [7]) and in test [3] (setting [8]) was 0.01 to 0.1 µM in each case.
As to `COc1ccc(-c2nc(COc3ccc(C[C@H](NC(=O)O[C@H]4CO[C@H]5OCC[C@H]54)[C@H](O)CN(CC(C)C)S(=O)(=O)c4ccc5c(c4)OCO5)cc3)no2)cc1` [Compound 391, (3R,3aS,6aR)-hexahydrofuro[2,3-b]furan-3-yl (1S,2R)-3-[(1,3-benzodioxol-5-ylsulfonyl)(isobutyl)amino]-2-hydroxy-1-(4-{[5-(4-methoxyphenyl)-1,2,4-oxadiazol-3-yl]methoxy}benzyl)propylcarbamate], the IC50 in test [1] (setting [4]), in test [2] (setting [7]) and in test [3] (setting [8]) was 0.001 to 0.01 µM throughout.
For the molecule `Cc1cc(S(=O)(=O)N(CC(C)C)C[C@@H](O)[C@H](Cc2ccc(OCc3ccccn3)cc2)NC(=O)O[C@H]2CO[C@H]3OCC[C@H]32)ccc1O` [Compound 295], the half-maximal inhibitory concentration (IC50) in test [1] (setting [4]), in test [2] (setting [7]) and in test [3] (setting [8]) was 0.001 to 0.01 µM each time.
In the case of `Cc1nc(COc2ccc(C[C@H](NC(=O)O[C@H]3CO[C@H]4OCC[C@H]43)[C@H](O)CN(CC(C)C)S(=O)(=O)c3ccc4c(c3)OCO4)cc2)cs1` [Compound 368], the IC50 was under 0.001 µM in test [1], under 0.001 µM in test [2] (setting [9]) and 0.001 to 0.01 µM in test [3] (setting [10]).
As for `CC(C)CN(C[C@@H](O)[C@H](Cc1ccc(OCc2noc(C(C)(C)C)n2)cc1)NC(=O)O[C@H]1CO[C@H]2OCC[C@H]21)S(=O)(=O)c1ccc2c(c1)OCO2` [Compound 370], the IC50 was under 0.001 µM in test [1] (setting [4]), 0.001 to 0.01 µM in test [2] (setting [7]) and 0.001 to 0.01 µM in test [3] (setting [8]).
For the molecule `COC(=O)NCCOc1ccc(C[C@H](NC(=O)O[C@H]2CO[C@H]3OCC[C@H]32)[C@H](O)CN(CC(C)C)S(=O)(=O)c2ccc3c(c2)OCO3)cc1` [Compound 226, (3R,3aS,6aR)-hexahydrofuro[2,3-b]furan-3-yl (1S,2R)-3-[(1,3-benzodioxol-5-ylsulfonyl)(isobutyl)amino]-2-hydroxy-1-(4-{2-[(methoxycarbonyl)amino]ethoxy}benzyl)propylcarbamate], the half-maximal inhibitory concentration (IC50) in test [1] (setting [4]) was under 0.001 µM; in test [2] (setting [5]), under 0.001 µM; in test [3] (setting [6]) it was 0.001 to 0.01 µM.
Consider `CC(C)CN(C[C@@H](O)[C@H](Cc1ccc(OCCCCNC(=O)OC(C)(C)C)cc1)NC(=O)O[C@H]1CO[C@H]2OCC[C@H]21)S(=O)(=O)c1ccc2c(c1)OCO2` [Compound 223, (3R,3aS,6aR)-hexahydrofuro[2,3-b]furan-3-yl (1S,2R)-3-(1,3-benzodioxol-5-ylsulfonyl)(isobutyl)amino-1-(4-{4-[(tert-butoxycarbonyl)amino]butoxy}benzyl)-2-hydroxypropylcarbamate], for which the IC50 in test [1] (setting [4]), in test [2] (setting [7]) and in test [3] (setting [8]) was 0.001 to 0.01 µM throughout.

As a reminder, the IC50 is the point on the concentration scale where inhibition reaches its midpoint.
